Results on two molecules are retold here after patent publication US12215069B2, “Sirtuin modulating compounds and applications thereof” (Codagen Biosciences, Inc., priority 2022, dated 2025).

In experiment [1] the target is T1, Sirt3 (Homo sapiens, UniProt Q9NTG7).
T1 construct: The hSirt3^118-399 was purchased from Xtal Biostructures (Natick, MA); purchased Xtal Biostructures (Natick, MA)
T1 sequence (Q9NTG7 118-399): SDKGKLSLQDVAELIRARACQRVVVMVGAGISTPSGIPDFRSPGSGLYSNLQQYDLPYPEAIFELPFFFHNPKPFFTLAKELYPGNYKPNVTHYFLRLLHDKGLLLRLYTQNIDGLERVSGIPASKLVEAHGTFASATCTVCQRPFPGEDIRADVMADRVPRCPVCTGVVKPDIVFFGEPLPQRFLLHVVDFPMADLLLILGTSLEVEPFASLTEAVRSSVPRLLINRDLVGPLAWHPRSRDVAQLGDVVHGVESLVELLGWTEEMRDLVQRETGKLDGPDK
Kind of experiment: Fluorescence-based (FdL) assay of Sirt3 deacylation activity under steady state conditions. Format: biochemical. The settings on record: for remaining activity at 1 µM: compound 1 μM; for remaining activity at 1 µM / remaining activity at 10 µM: read-out: % Control, Sirt3 deacylation activity; for remaining activity at 10 µM: compound 10 μM; for % Control, Sirt3 deacylation activity: compound 50 μM or maximum. From the text:
(§1) FdL2 (QPKK^AC-AMC) peptide, also called p53-AMC peptide, was purchased from Enzo Life Sciences (Farmingdale, NY). Carba-NAD was synthesized by Dalton Pharma (Toronto, ON). The hSirt3^118-399 was purchased from Xtal Biostructures (Natick, MA). Virtual screening hits were supplied from ChemBridge Corp. (San Diego, CA).
(§2) Effect of Hit Compounds on hSirt3^118-399 Deacetylation Activity

Experiment [2] deals with T1, Sirt3. The experiment can be described thus: HPLC assay of Sirt3 deacylation activity under non-steady state conditions. Format: biochemical. To be noted: compound 10 μM, 2 minute time point, read-out: % Control (10 μM), Sirt3 deacylation activity.
Description: as §1, §2

`C=C(CC)C(=O)c1ccc(OCC(=O)N[C@H](Cc2ccc(Cl)cc2)C(=O)NCCCC)c(Cl)c1Cl` [FIG. 1, (2R)—N-butyl-3-(4-chlorophenyl)-2-[[2-[2,3-dichloro-4-(2-methylenebutanoyl)phenoxy]acetyl]amino]propanamide]: at Sirt3 [1], the remaining activity at 1 µM was 95.7 ± 2.6%. In addition, the remaining activity at 10 µM on Sirt3 [1] is 82.8 ± 2.3%; at Sirt3 [2] ([E]0/[NAD+]0 = 0.3, 50 μM NAD+), 104 ± 3.3%; at Sirt3 [2] ([E]0/[NAD+]0 = 0.6, 50 μM NAD+), 107 ± 1.6%. For the same molecule, the “% Control, Sirt3 deacylation activity” value on Sirt3 [1] is recorded as 73.6 ± 2.4%.
Consider `C=C(CC)C(=O)c1ccc(OCC(=O)NC2c3ccccc3CCc3cc(OCC(=O)NCCCC)ccc32)c(Cl)c1Cl` (centres unmarked) [FIG. 28], for which, at Sirt3 [1], the remaining activity at 1 µM is 80.4 ± 3.1%; the remaining activity at 10 µM was 75.5 ± 2.3%; the “% Control, Sirt3 deacylation activity” value was 68.7 ± 4.0%.
